Tests used:
[1] = target: T1, G1 APOL1 (Homo sapiens, UniProt O14791, I384M/S342G); assay: Acute APOL1 Thallium Assay with Inducible Stable Clones of HEK 293 Cells; type: cell-based; settings: HEK 293 inducible stable clones, G1 APOL1; read-out: Thallium Assay (IC50)
T1 construct: expressed in transfected cells
T1 sequence (O14791 28-398 S342G/I384M): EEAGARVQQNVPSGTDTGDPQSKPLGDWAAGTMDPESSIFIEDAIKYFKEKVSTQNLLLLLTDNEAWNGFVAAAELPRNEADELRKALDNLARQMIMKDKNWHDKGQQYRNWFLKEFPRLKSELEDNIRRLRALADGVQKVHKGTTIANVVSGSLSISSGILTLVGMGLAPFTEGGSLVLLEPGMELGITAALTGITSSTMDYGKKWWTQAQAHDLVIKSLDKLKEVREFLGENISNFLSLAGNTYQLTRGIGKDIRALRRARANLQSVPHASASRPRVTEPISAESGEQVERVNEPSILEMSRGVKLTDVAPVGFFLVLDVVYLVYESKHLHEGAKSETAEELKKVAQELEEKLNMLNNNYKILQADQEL
Summary of the method: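 HEK293 T-Rex cells with a stable tetracycline-inducible G1 APOL1 construct (clone DC3.25) were induced with tetracycline at plating, 26000 cells per well, then incubated at 37° C. They were loaded with an AM-ester thallium-sensitive dye and stimulated with Tl+. The fluorescence rise measured Tl+ influx through APOL1 pores.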

[2] = target: T2, APOL1 G1 Protein (Homo sapiens, UniProt O14791, I384M/S342G); assay: Trypanosoma brucei brucei Lysis Assay Using APOL1 Recombinant Protein (AlamarBlue viability); type: cell-based; settings: read-out: Trypanosomal Assay (IC50)
T2 sequence (O14791 28-398 S342G/I384M): T1 sequence (O14791 28-398 S342G/I384M)
Summary of the method: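 Lister 427 bloodstream-form trypanosomes seeded at 120,000 per well in phenol-red-free, serum-free medium and lysed with recombinant APOL1 variant protein. Viability read by AlamarBlue (resazurin) fluorescence. Percent viability relative to untreated wells, interpolated from a standard curve of seeded parasites.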

SMILES | IC50 [1] [µM] | IC50 [2] [µM]
O=C(CCc1c(-c2ccc(F)cc2)[nH]c2ccc(F)cc12)N1CCCC1CO (centres unmarked) [Compound 71] | > 1 | > 1
O=C(CCc1c(-c2ccc(F)cc2)[nH]c2ccc(F)cc12)Nc1cn[nH]c1 [Compound 46] | > 1 | > 1
O=C(CCc1c(-c2ccc(F)cc2)[nH]c2c(F)cc(F)cc12)NC1CC1(F)F (centres unmarked) [Compound 142] | > 1 | > 1
Cn1ccnc1NC(=O)CCc1c(-c2ccc(F)cc2)[nH]c2c(F)cc(F)cc12 [Compound 108] | > 1 | > 1
O=C(/C=C/c1c(-c2ccc(F)cc2)[nH]c2c(F)cc(F)cc12)N[C@@H]1C(=O)NC[C@H]1O [Compound 518, (E)-3-[5,7-difluoro-2-(4-fluorophenyl)-1H-indol-3-yl]-N-[(3S,4R)-4-hydroxy-2-oxo-pyrrolidin-3-yl]prop-2-enamide] | < 0.25 | < 0.25
O=C(CCc1c(-c2ccc(F)cc2)[nH]c2c(F)cc(F)cc12)NC1CCCC1=O (centres unmarked) [Compound 101] | < 0.25 | < 0.25
CC[C@@H](CO)NC(=O)CCc1c(-c2ccc(F)cc2)[nH]c2ccc(F)cc12 [Compound 80] | > 1 | > 1
O=C(CCc1c(-c2ccc(F)cc2)[nH]c2c(F)cc(F)cc12)Nc1nnc(C(F)(F)F)o1 [Compound 148] | > 1 | > 1
OCCCc1c(-c2ccc(F)cc2)[nH]c2c(F)cc(F)cc12 [Compound 517, 3-[5,7-difluoro-2-(4-fluorophenyl)-1H-indol-3-yl]propan-1-ol] | < 0.25 | < 0.25
CC(=O)NCCCCc1c(-c2ccc(F)cc2)[nH]c2c(F)cc(F)cc12 [Compound 512, N-[4-[5,7-difluoro-2-(4-fluorophenyl)-1H-indol-3-yl]butyl]acetamide] | 0.25 to 1 | 0.25 to 1
CC(NC(=O)CCc1c(-c2ccc(F)cc2)[nH]c2ccc(F)cc12)C(N)=O (racemic) [Compound 13] | 0.25 to 1 | > 1
O=C(CCc1c(-c2ccc(F)cc2)[nH]c2c(F)cc(F)cc12)NC[C@@H](O)C(F)(F)F [Compound 137] | > 1 | > 1
CC(C)(C)OC(=O)NC1CCCN(C(=O)CCc2c(-c3ccc(F)cc3)[nH]c3ccc(F)cc23)C1 (centres unmarked) [Compound 66] | > 1 | > 1
O=C(CCc1c(-c2ccc(F)cc2)[nH]c2c(F)cc(Br)cc12)N[C@H](CO)C(F)(F)F [Compound 228] | > 1 | > 1
Cc1cc(NC(=O)CCc2c(-c3ccc(F)cc3)[nH]c3ccc(F)cc23)no1 [Compound 526] | > 1 | > 1
O=C(CCc1c(-c2ccc(F)cc2)[nH]c2ccc(F)cc12)N[C@@H](CO)C(F)(F)F [Compound 1, 3-[5-fluoro-2-(4-fluorophenyl)-1H-indol-3-yl]-N-[(1S)-2,2,2-trifluoro-1-(hydroxymethyl)ethyl]propanamide] | < 0.25 | < 0.25
O=C(CCc1c(-c2ccc(F)cc2)[nH]c2c(F)cc(F)cc12)NC(CO)c1ccccn1 (centres unmarked) [Compound 185] | > 1 | > 1
CC(NC(=O)CCc1c(-c2ccc(F)cc2)[nH]c2c(F)cc(F)cc12)C(F)(F)F (racemic) [Compound 115] | 0.25 to 1 | 0.25 to 1
N#Cc1ccc(-c2[nH]c3c(F)cc(F)cc3c2CCC(=O)N[C@@H](CO)C(F)(F)F)cc1 [Compound 234, 3-[2-(4-cyanophenyl)-5,7-difluoro-1H-indol-3-yl]-N-[(1S)-2,2,2-trifluoro-1-(hydroxymethyl)ethyl]propanamide] | < 0.25 | < 0.25
CC1(O)CN(C(=O)CCc2c(-c3ccc(F)cc3)[nH]c3ccc(F)cc23)C1 [Compound 86] | > 1 | > 1
O=C(CCc1c(-c2ccc(F)cc2)[nH]c2ccc(F)cc12)NC1COC1 [Compound 69] | > 1 | > 1
O=C(CCc1c(-c2ccc(F)cc2)[nH]c2ccc(F)cc12)NC1(CO)CCC1 [Compound 4] | < 0.25 | < 0.25
C[C@H](CO)NC(=O)CCc1c(-c2ccc(F)cc2)[nH]c2c(F)cc(F)cc12 [Compound 120] | < 0.25 | < 0.25
O=C(CCc1c(-c2ccc(F)cc2)[nH]c2c(F)cc(Br)cc12)N[C@@H](CO)C(F)(F)F [Compound 229] | 0.25 to 1 | < 0.25
CN(CCNC(=O)OC(C)(C)C)C(=O)CCc1c(-c2ccc(F)cc2)[nH]c2ccc(F)cc12 [Compound 72] | > 1 | > 1
Cc1ccc(CNC(=O)CCc2c(-c3ccc(F)cc3)[nH]c3c(F)cc(F)cc23)o1 [Compound 177] | > 1 | > 1

SMILES | IC50 [1] [µM] | IC50 [2] [µM]
O=C(CCc1c(-c2ccc(F)cc2)[nH]c2ccc(F)cc12)NC(CO)CO [Compound 22] | 0.25 to 1 | 0.25 to 1
O=C(CCc1c(-c2ccc(F)cc2)[nH]c2c(F)cc(F)cc12)NC(CCO)C(=O)O (centres unmarked) [Compound 188] | < 0.25 | 0.25 to 1
CC(C)(C)OC(=O)N[C@H]1C[C@H](NC(=O)CCc2c(-c3ccc(F)cc3)[nH]c3ccc(F)cc23)C1 [Compound 57] | > 1 | > 1
O=C(CCc1c(-c2ccc(F)cc2)[nH]c2c(F)cc(F)cc12)Nc1nnco1 [Compound 151] | > 1 | > 1
O=C(CCc1c(-c2ccc(F)cc2)[nH]c2c(F)cc(F)cc12)NC1C(=O)Nc2ccc(F)cc21 (centres unmarked) [Compound 139] | > 1 | > 1
Cn1nccc1NC(=O)CCc1c(-c2ccc(F)cc2)[nH]c2c(F)cc(F)cc12 [Compound 144] | > 1 | > 1
O=C(CCc1c(-c2ccc(F)cc2)[nH]c2c(F)cc(F)cc12)N[C@H]1CC[C@H](O)C1 [Compound 135] | > 1 | > 1
C[C@@H](CO)N(C)C(=O)CCc1c(-c2ccc(F)cc2)[nH]c2c(F)cc(F)cc12 [Compound 149] | > 1 | > 1
O=C(CCc1c(-c2ccc(F)cc2)[nH]c2ccc(F)cc12)NCC(F)F [Compound 24] | 0.25 to 1 | > 1
O=C(CCc1c(-c2ccc(F)cc2)[nH]c2ccc(F)cc12)N[C@H](CO)C(F)(F)F [Compound 50] | > 1 | > 1
C[C@H](CO)NC(=O)CCc1c(-c2ccc(F)cc2)[nH]c2c(F)cc(Br)cc12 [Compound 227, 3-[5-bromo-7-fluoro-2-(4-fluorophenyl)-1H-indol-3-yl]-N-[(1R)-2-hydroxy-1-methyl-ethyl]propanamide] | < 0.25 | < 0.25
O=C(CCc1c(-c2ccc(F)cc2)[nH]c2c(F)cc(F)cc12)N1CC(CO)C1 [Compound 104] | > 1 | > 1
O=C(CCc1c(-c2ccc(F)cc2)[nH]c2c(F)cc(F)cc12)NC1CCOC1 (centres unmarked) [Compound 169] | > 1 | > 1
CCNC(=O)C(C)NC(=O)CCc1c(-c2ccc(F)cc2)[nH]c2ccc(F)cc12 (racemic) [Compound 12] | 0.25 to 1 | 0.25 to 1
CC(C)(C)OC(=O)NC1CCN(C(=O)CCc2c(-c3ccc(F)cc3)[nH]c3ccc(F)cc23)C1 (centres unmarked) [Compound 34] | > 1 | > 1
C[C@H](O)[C@H](CO)NC(=O)CCc1c(-c2ccc(F)cc2)[nH]c2ccc(F)cc12 [Compound 28] | 0.25 to 1 | > 1
O=C(CCc1c(-c2ccc(F)cc2)[nH]c2c(F)cc(F)cc12)Nc1ccc[nH]c1=O [Compound 175] | > 1 | > 1
O=C(CCc1c(-c2ccc(F)cc2)[nH]c2c(F)ccc(F)c12)N[C@@H](CO)C(F)(F)F [Compound 232, 3-[4,7-difluoro-2-(4-fluorophenyl)-1H-indol-3-yl]-N-[(1S)-2,2,2-trifluoro-1-(hydroxymethyl)ethyl]propanamide] | 0.25 to 1 | 0.25 to 1
O=C(CCc1c(-c2ccc(F)cc2)[nH]c2c(F)cc(F)cc12)NC1(CCO)CC1 [Compound 154] | > 1 | > 1
O=C(CCc1c(-c2ccc(F)cc2)[nH]c2ccc(F)cc12)N[C@H]1CC[C@H]1O [Compound 14] | 0.25 to 1 | 0.25 to 1
Cc1csc(NC(=O)CCc2c(-c3ccc(F)cc3)[nH]c3c(F)cc(F)cc23)n1 [Compound 125] | > 1 | > 1
O=C(CCc1c(-c2ccc(F)cc2)[nH]c2c(F)cc(F)cc12)NCc1ncco1 [Compound 153] | > 1 | > 1
NC1CCN(C(=O)CCc2c(-c3ccc(F)cc3)[nH]c3ccc(F)cc23)C1 (centres unmarked) [Compound 49] | > 1 | > 1
C[C@@H](O)CNC(=O)CCc1c(-c2ccc(F)cc2)[nH]c2ccc(F)cc12 [Compound 79] | > 1 | > 1
O=C(CCc1c(-c2ccc(F)cc2)[nH]c2ccc(F)cc12)N[C@@H]1CCC[C@@H]1O [Compound 15] | 0.25 to 1 | 0.25 to 1
N#CC(CO)NC(=O)CCc1c(-c2ccc(F)cc2)[nH]c2c(F)cc(F)cc12 (centres unmarked) [Compound 106] | < 0.25 | 0.25 to 1
